Measured values: patent EP1531819B1, “USE OF I kappa B KINASE INHIBITORS FOR THE TREATMENT OF PAIN” (Sanofi-Aventis Deutschland GmbH, priority 2002, dated 2004)

How the values were obtained:
[1] = tested on: Kaolin/Carrageenan induzierte Kniegelenksentzündung bei der Ratte; test: Model 2: kaolin/carrageenan-induced knee joint inflammation, responses of spinal neurons to pressure on the knee; type: in vivo
Description: Modell: Zymosan-induzierte Pfotenentzündung bei der Ratte; Parameter: Pfotenwegziehzeit oder Pfotenwegziehschwelle bei thermischer oder mechanischer Stimulation der Hinterpfote. • 2. Modell: Kaolin/Carrageenan induzierte Kniegelenksentzündung bei der Ratte; Parameter: Reaktion spinaler Neurone bei Druckreizung des Knies.
Versuchsdurchführung: Bei Ratten wurde in Trapanal-Narkose der Wirbelkanal eröffnet und Rückenmarksneurone, die "Schmerzimpulse" aus dem Kniegelenk verarbeiteten, identifiziert. Nach Identifizierung wurde eine Langzeitableitung durchgeführt, in der die Aktivität der Nervenzelle vor und während der Entwicklung einer akuten Entzündung im Kniegelenk registriert wurde. Dazu wurden in einer Kontrollperiode vor Induktion der Entzündung und nach Induktion der Entzündung für mehrere Stunden die Antworten auf nicht noxische und noxische Reizung am Kniegelenk gemessen.
Die akute Entzündung wurde durch die intraartikuläre Injektion einer Kaolin und Carrageenan Suspension (etwa 150 µl) induziert. In Kontrollexperimenten wurde nur das Vehikel auf die Rückenmarksoberfläche aufgebracht, um die Entwicklung der Übererregbarkeit unter Kontrollbedingungen darzustellen. In der Regel fand diese Entwicklung der Übererregbarkeit innerhalb von 2 bis 4 Stunden statt, und sie äußerte sich in einer starken Zunahme der Antworten auf nicht noxische und noxische Reizung des Kniegelenks (Tab. 3). […] Dann wurden die Antworten der Zelle auf nichtnoxische und noxische Reizung wie in den Kontrollexperimenten weiter verfolgt.

[2] = tested on: Zymosan-induzierte Pfotenentzündung bei der Ratte; test: Model 1b: zymosan-induced paw inflammation, paw withdrawal threshold on mechanical stimulation (von Frey Test); type: in vivo
[3] = tested on: Zymosan-induzierte Pfotenentzündung bei der Ratte; test: Model 1a: zymosan-induced paw inflammation, paw withdrawal latency on thermal stimulation (Hargreaves Test); type: in vivo
[4] = tested on: Zymosan-induzierte Pfotenentzündung bei der Maus; test: Model 4: zymosan-induced paw inflammation, spontaneous running wheel performance, AUC; type: in vivo, C57/B6 Mäuse; conditions: for AUC Mittelwert (Laufradaktivität): 7 days after Zymosan; for Statistischer Unterschied gegenüber Vehikel: Laufradaktivität AUC
Description: Das Versuchstier hat in seinem Haltungskäfig Zugang zu einem Laufrad, dessen Umdrehungen elektronisch registriert werden. Die C57/B6 Mäuse benutzen in den Nachtstunden freiwillig das Laufrad und legen im Mittel nach einer einwöchigen Gewöhnungsphase 4100 Meter/Nacht zurück. Nach Zymosan Injektion ist die nächtliche Laufstrecke verkürzt. Diese Abnahme der Laufleistung gilt als Parameter für entzündungsschmerzbedingte Funktionseinschränkung. Versuchsdurchführung: Die Laufstrecke/24 Std. wurde nach einer Eingewöhnungsphase eine Woche lang zur Bestimmung der Baseline gemessen. Dann wurde in Kurzzeitnarkose mit Isofluran dem Versuchstier 25 µl einer Suspension, die […] Zymosan enthielt, in die rechte Hinterpfote injiziert. Anschließend wurde Laufstrecke/24 Std. während der nächsten sieben Tage ermittelt. In der Auswertung wurde die Fläche unter der Kurve der Laufstreckenwerte bestimmt (AUC, Tab. 7): je kleiner die AUC, desto geringer die Laufleistung in der Woche nach Zymosan Injektion. […] Die Substanzgabe wurde am Tag 1 nach Zymosan Injektion begonnen.

[5] = tested on: Zymosan-induzierte Pfotenentzündung bei der Maus; test: Model 3: zymosan-induced paw inflammation, paw withdrawal latency on thermal stimulation (Hargreaves Test), AUC; type: in vivo; conditions: for Statistischer Unterschied gegenüber Vehikel: thermische Hyperalgesie AUC; for AUC Mittelwert [Maß für Hyperalgesie]: thermische Hyperalgesie
Experimental: Parameter: Pfotenwegziehzeit bei thermischer Stimulation der Hinterpfote. Versuchsdurchführung: In Kurzzeitnarkose mit Isofluran wurde dem Versuchstier 25 μl einer Suspension, die 50 mg/ml Zymosan enthielt, in die rechte Hinterpfote injiziert. Dann wurde die […] quantitativ wie folgt bestimmt: Bestimmung der Pfotenwegziehzeit bei thermischer Stimulation (Hargreaves Test; s.o.). Das Versuchstier wurde in […] Versuchstier nach der Erkundungsphase (etwa 5 min) nicht mehr bewegte, wurde […] zu stimulierenden Hinterpfote positioniert und […]. Die […] ab, so dass die Hauttemperatur […] linear […] Pfote […] ab. Die Pfotentemperatur zum Zeitpunkt des Wegziehens ist für das Tier gerade eben unangenehm, […] von thermischer Schmerzschwelle. Kurz vor Zymosan-Injektion und für 7 bis 14 Tage nach Injektion wurde […] an der rechten und linken Hinterpfote bestimmt. Anschließend wurde […] Integral der Fläche, die aus […] und […] Pfote gebildet wurde, bestimmt (AUC, area between the curves, s. Tabellen 5 und 6). Je größer dieser Wert ist, umso […], und je kleiner der Wert bei Tieren, die die Substanz erhalten, desto stärker ist der Therapieerfolg. In einer 7-Tage Studie induzierte die Zymosan Injektion in […], Tab. 5). In den anderen Gruppen wurde die Substanzgabe einen Tag nach Zymosan Injektion, […] schon […]. […] Die […] Studie (7 Tage) ergab, dass die AUC unter Substanzgabe dosisabhängig abnahm. […] In einer parallel […] von Tieren wurde Paracetamol in einer sehr hohen Dosis ebenfalls zweimal am Tag verabreicht. […] Paracetamol (Tab. 5). […] […] Zymosan Injektion und Dosierschema […] zuvor beschriebenen Studie. Einziger Unterschied war, dass die weitere Studie über 14 Tage lief.

[6] = etwa 30 µl of 10 µM Lösung on the spinal cord, 30-60 min nach K/C-Injektion
[7] = etwa 30 µl of 10 µM Lösung on the spinal cord, 60-120 min nach K/C-Injektion
[8] = etwa 30 µl of 10 µM Lösung on the spinal cord, 120-180 min nach K/C-Injektion
[9] = etwa 30 µl of 10 µM Lösung on the spinal cord, 180-240 min nach K/C-Injektion
[10] = etwa 30 µl of 10 µM Lösung on the spinal cord, Baseline
[11] = je 30 mg/kg i.p. (x3), 0,5 h nach Zymosan-Injektion
[12] = je 30 mg/kg i.p. (x3), 1 h nach Zymosan-Injektion
[13] = je 30 mg/kg i.p. (x3), 2 h nach Zymosan-Injektion
[14] = je 30 mg/kg i.p. (x3), 3 h nach Zymosan-Injektion
[15] = je 30 mg/kg i.p. (x3), 4 h nach Zymosan-Injektion
[16] = je 30 mg/kg i.p. (x3), 5 h nach Zymosan-Injektion
[17] = je 30 mg/kg i.p. (x3), 6 h nach Zymosan-Injektion
[18] = je 30 mg/kg i.p. (x3), 7 h nach Zymosan-Injektion
[19] = je 30 mg/kg i.p. (x3), 24 h nach Zymosan-Injektion
[20] = je 30 mg/kg i.p. (x3), Baseline -0,5 h
[21] = 7 days, 2.8 mg/kg oral twice daily
[22] = 7 days, 25 mg/kg oral twice daily
[23] = 7 days, 75 mg/kg oral twice daily

With `CNc1nccc(-c2cc3cc(C(=O)N[C@@H](CN(c4ccccc4)c4ccccc4)c4n[nH]c(=O)o4)ccc3[nH]2)n1` [Verbindung 13, 2-(2-Methylamin-pyrimidin-4-yl)-1H-indol-5-carbonsäure [(S)-2-diphenylamin-1-(5-oxo-4,5-dihydro-[1,3,4]oxadiazol-2-yl)-ethyl]-amid] the “Wirkung auf die Antworten auf noxische Kniegelenksstimulation, comparison with Indomethacin” value ([1]; comparison with published data of an earlier study) was “insgesamt stärker ausgeprägt als die Wirkung von Indomethacin”, the “Entwicklung der spinalen Übererregbarkeit gegenüber den Kontrollen” value ([1]; etwa 30 µl of 10 µM Lösung on the spinal cord) was “beinahe vollständig unterdrückt” and the “Neuronale Antworten vor und während Kniegelenksentzündung, Nicht-noxische Reizung am Kniegelenk, Mittelwert” value [1, 6] was 8,66 imp/15s. The “Neuronale Antworten vor und während Kniegelenksentzündung, Noxische Reizung am Kniegelenk, Mittelwert” value [1, 6] was 62,3 imp/15s, the “Neuronale Antworten vor und während Kniegelenksentzündung, Nicht-noxische Reizung am Kniegelenk, Mittelwert” value [1, 7] was 2,71 imp/15s and the “Neuronale Antworten vor und während Kniegelenksentzündung, Noxische Reizung am Kniegelenk, Mittelwert” value [1, 7] was 26,9 imp/15s. For the same compound, the “Neuronale Antworten vor und während Kniegelenksentzündung, Nicht-noxische Reizung am Kniegelenk, Mittelwert” value [1, 8] was 11,16 imp/15s, the “Neuronale Antworten vor und während Kniegelenksentzündung, Noxische Reizung am Kniegelenk, Mittelwert” value [1, 8] was 8,5 imp/15s and the “Neuronale Antworten vor und während Kniegelenksentzündung, Nicht-noxische Reizung am Kniegelenk, Mittelwert” value [1, 9] was 39,78 imp/15s. The “Neuronale Antworten vor und während Kniegelenksentzündung, Noxische Reizung am Kniegelenk, Mittelwert” value [1, 9] was 19,5 imp/15s, the “Neuronale Antworten vor und während Kniegelenksentzündung, Nicht-noxische Reizung am Kniegelenk, Mittelwert” value [1, 10] was 0,92 imp/15s and the “Neuronale Antworten vor und während Kniegelenksentzündung, Noxische Reizung am Kniegelenk, Mittelwert” value [1, 10] was 0,8 imp/15s. The “mechanische Hyperalgesie” value ([2]; je 30 mg/kg i.p. (x3)) was “signifikant reduziert”, the “mechanische Hyperalgesie, duration of effect nach der letzten Substanzgabe” value ([2]; je 30 mg/kg i.p. (x3)) was no less than 18 Std and the “mechanische Hyperalgesie, onset of effect nach Zymosan Injektion” value ([2]; je 30 mg/kg i.p. (x3)) was 1 Stunde. For the same compound, the “Veränderung der Pfotenwegziehschwelle (%) Mittelwert” value [2, 11] was -37,4%, the “Veränderung der Pfotenwegziehschwelle (%) Mittelwert” value [2, 12] was -43,1% and the “Veränderung der Pfotenwegziehschwelle (%) Mittelwert” value [2, 13] was -36,0%. For the same compound, the “Veränderung der Pfotenwegziehschwelle (%) Mittelwert” value [2, 14] was -35,1%, the “Veränderung der Pfotenwegziehschwelle (%) Mittelwert” value [2, 15] was -46,7% and the “Veränderung der Pfotenwegziehschwelle (%) Mittelwert” value [2, 16] was -40,6%. The “Veränderung der Pfotenwegziehschwelle (%) Mittelwert” value [2, 17] was -33,1%, the “Veränderung der Pfotenwegziehschwelle (%) Mittelwert” value [2, 18] was -44,7% and the “Veränderung der Pfotenwegziehschwelle (%) Mittelwert” value [2, 19] was -9,7%. For the same compound, the “Veränderung der Pfotenwegziehschwelle (%) Mittelwert” value [2, 20] was 0,0%, the “thermische Hyperalgesie, comparison with Diclofenac” value ([3]; comparison data from an earlier study) was “erheblich stärker reduziert als das NSAID Diclofenac” and the “thermische Hyperalgesie, duration of effect nach der letzten Substanzgabe” value ([3]; je 30 mg/kg i.p. (x3)) was greater than 18 Std. For the same compound, the “Veränderung der Pfotenwegziehzeit (%) Mittelwert” value [3, 11] was -16,6%, the “Veränderung der Pfotenwegziehzeit (%) Mittelwert” value [3, 12] was -31,3% and the “Veränderung der Pfotenwegziehzeit (%) Mittelwert” value [3, 13] was -30,2%. The “Veränderung der Pfotenwegziehzeit (%) Mittelwert” value [3, 14] was -15,3%, the “Veränderung der Pfotenwegziehzeit (%) Mittelwert” value [3, 15] was -16,0% and the “Veränderung der Pfotenwegziehzeit (%) Mittelwert” value [3, 16] was -9,7%. For the same compound, the “Veränderung der Pfotenwegziehzeit (%) Mittelwert” value [3, 17] was 5,0%, the “Veränderung der Pfotenwegziehzeit (%) Mittelwert” value [3, 18] was 3,4% and the “Veränderung der Pfotenwegziehzeit (%) Mittelwert” value [3, 19] was -3,8%. The “Veränderung der Pfotenwegziehzeit (%) Mittelwert” value [3, 20] was 0,0%, the “thermische Hyperalgesie, Seitenunterschied in der Pfotenwegziehzeit” value ([3]; je 30 mg/kg i.p., after the third dose) was “überhaupt kein Seitenunterschied in der Pfotenwegziehzeit mehr zu finden” and the “thermische Hyperalgesie compared with Kontrollgruppe” value ([3]; je 30 mg/kg i.p., from two hours after Zymosan Injektion) was “geringer ausgeprägt als in der Kontrollgruppe”. The “AUC Mittelwert (Laufradaktivität)” value ([4]; 2.8 mg/kg oral twice daily) was 131.1, the “AUC Mittelwert (Laufradaktivität)” value ([4]; 25 mg/kg oral twice daily) was 216.7 and the “AUC Mittelwert (Laufradaktivität)” value ([4]; 75 mg/kg oral twice daily) was 251.7. For the same compound, the “Laufleistung nach Zymosan Injektion gegenüber der Vehikelgruppe” value ([4]; 7 days, twice daily) was “dosisabhängige Steigerung der Laufstrecke”, the “Statistischer Unterschied gegenüber Vehikel” value [4, 21] was “nein” and the “Statistischer Unterschied gegenüber Vehikel” value [4, 22] was “ja”. The “Statistischer Unterschied gegenüber Vehikel” value [4, 23] was “ja”, the “thermische Hyperalgesie, comparison with Paracetamol” value ([5]; 7-day study, twice daily) was “stärker als Paracetamol” and the “Effekte on thermische Hyperalgesie in der hohen Dosierung” value ([5]; 14-day study, high dose (25 mg/kg)) was “gleich stark”. For the same compound, the minimal effective dose ([5]; 168 h, 7-day study, oral twice daily, read-out: Einzeldosis from which Therapieerfolg signifikant gegenüber der Vehikelgruppe) was no less than 8.3 mg/kg, the “Statistischer Unterschied gegenüber Vehikel” value [5, 21] was “nein” and the “Statistischer Unterschied gegenüber Vehikel” value [5, 22] was “ja”. The “Statistischer Unterschied gegenüber Vehikel” value [5, 23] was “ja”, the “Statistischer Unterschied gegenüber Vehikel” value ([5]; 14 days, 25 mg/kg twice daily) was “ja” and the “AUC Mittelwert [Maß für Hyperalgesie]” value ([5]; 7 days after Zymosan, 2.8 mg/kg oral twice daily) was 40.4. For the same compound, the “AUC Mittelwert [Maß für Hyperalgesie]” value ([5]; 7 days after Zymosan, 25 mg/kg oral twice daily) was 19.4, the “AUC Mittelwert [Maß für Hyperalgesie]” value ([5]; 7 days after Zymosan, 75 mg/kg oral twice daily) was 17.4 and the “AUC Mittelwert [Maß für Hyperalgesie]” value ([5]; 14 days after Zymosan, 25 mg/kg twice daily) was 47.6.
